Test results taken from ChEMBL document CHEMBL4837181 (Eur J Med Chem, 2020).

Experiments:
[1] = Volume of distribution in female cynomolgus monkey at 15 mg/kg, iv measured on day 1; type: ADME, organism-based, Macaca fascicularis; conditions: in vivo
[2] = Cmax in po BID dosed cynomolgus monkey administered for 28 days; type: ADME, organism-based, Macaca fascicularis; design: route oral, time 28 day; conditions: in vivo
[3] = Half life in male cynomolgus monkey at 225 mg/kg, po measured on day 1; type: ADME, organism-based, Macaca fascicularis; conditions: in vivo
[4] = Cmax in mouse at 62 mg/kg administered bid; type: ADME, organism-based; design: dose 62 mg/kg; conditions: in vivo
[5] = AUC (0 to 12 hrs) in human up to 1200 mg administered bid; type: ADME; design: time < 12 hr, dose <=1200
[6] = Apparent oral clearance in female cynomolgus monkey at 150 mg/kg, po BID measured on day 8; type: ADME, organism-based, Macaca fascicularis; conditions: in vivo
[7] = Apparent oral clearance in male cynomolgus monkey at 225 mg/kg, po measured on day 1; type: ADME, organism-based, Macaca fascicularis; conditions: in vivo
[8] = Half life in mouse at 20 to 900 mg/kg, po; type: ADME, organism-based; conditions: in vivo, dose 20-900 mg/kg
[9] = AUC (0 to 24 hrs) at steady state in mouse at 62 mg/kg administered bid; type: ADME, organism-based; design: time < 24 hr, dose 62 mg/kg; conditions: in vivo
[10] = Drug metabolism in rats assessed as formation of M9 metabolite at 20 to 900 mg/kg; type: ADME, organism-based; conditions: rat, in vivo; dose 20-900 mg/kg
Cytochrome P450 2C19 = Cytochrome P450 2C19 (Homo sapiens, UniProt P33261); assay: Inhibition of CYP2C19 in human hepatocytes; type: ADME, cell-based, Hepatocyte
Chain of Cytochrome P450 2C19 (P33261 whole entry): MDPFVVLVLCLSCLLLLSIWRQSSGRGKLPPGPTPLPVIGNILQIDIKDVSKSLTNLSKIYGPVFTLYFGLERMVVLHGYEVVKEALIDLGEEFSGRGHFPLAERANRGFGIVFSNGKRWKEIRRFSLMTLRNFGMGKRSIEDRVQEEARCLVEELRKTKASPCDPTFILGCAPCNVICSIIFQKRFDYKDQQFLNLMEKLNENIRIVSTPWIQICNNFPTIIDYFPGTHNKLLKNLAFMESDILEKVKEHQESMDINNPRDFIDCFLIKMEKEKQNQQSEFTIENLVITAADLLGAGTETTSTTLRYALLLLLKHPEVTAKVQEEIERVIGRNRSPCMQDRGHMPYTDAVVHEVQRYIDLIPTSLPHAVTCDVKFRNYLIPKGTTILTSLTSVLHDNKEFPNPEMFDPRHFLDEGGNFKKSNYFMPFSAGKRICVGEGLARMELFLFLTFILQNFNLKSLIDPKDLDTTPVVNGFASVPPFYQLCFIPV

[11] = Drug metabolism in Sprague-Dawley rat hepatocytes assessed as unmetabolized compound at 10 uM incubated for 120 mins by UPLC-QTOF-PDA analysis; type: ADME, cell-based, Hepatocyte; conditions: read-out: Drug metabolism
CYP3A4 = CYP3A4 (Homo sapiens, UniProt P08684); assay: Time dependent inhibition of CYP3A4 in human hepatocytes assessed as fold shift relative to control; type: ADME, cell-based, Hepatocyte; conditions: read-out: FC
Chain of CYP3A4 (P08684 whole entry): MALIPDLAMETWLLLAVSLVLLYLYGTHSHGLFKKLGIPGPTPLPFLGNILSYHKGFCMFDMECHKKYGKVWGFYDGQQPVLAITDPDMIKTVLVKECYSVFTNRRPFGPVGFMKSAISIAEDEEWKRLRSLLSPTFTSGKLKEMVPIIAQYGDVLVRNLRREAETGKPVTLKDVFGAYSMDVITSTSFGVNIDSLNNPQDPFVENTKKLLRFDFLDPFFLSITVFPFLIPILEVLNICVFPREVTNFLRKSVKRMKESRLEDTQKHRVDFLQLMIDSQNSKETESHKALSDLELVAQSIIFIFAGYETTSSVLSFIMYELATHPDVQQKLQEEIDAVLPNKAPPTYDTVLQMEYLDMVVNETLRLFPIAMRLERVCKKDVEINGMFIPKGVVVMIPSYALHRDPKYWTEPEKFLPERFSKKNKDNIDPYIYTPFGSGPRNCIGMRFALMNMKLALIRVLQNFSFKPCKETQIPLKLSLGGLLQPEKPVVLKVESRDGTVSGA

Cytochrome P450 3A4 [12] = biological target: T1, Cytochrome P450 3A4 (Homo sapiens, UniProt P08684); assay: Direct inhibition of CYP3A4 in human hepatocytes; type: ADME, cell-based, Hepatocyte
T1 sequence (P08684 whole entry): as above

[13] = Toxicity in monkey assessed as change in cardiovascular parameter; design: species or system Macaca mulatta; conditions: rhesus monkey, in vivo
[14] = biological target: T2, Solute carrier family 22 member 6 (Homo sapiens, UniProt Q4U2R8); assay: Inhibition of OAT1 (unknown origin) expressed in HEK293 cells; type: cell-based
T2 sequence (Q4U2R8 whole entry): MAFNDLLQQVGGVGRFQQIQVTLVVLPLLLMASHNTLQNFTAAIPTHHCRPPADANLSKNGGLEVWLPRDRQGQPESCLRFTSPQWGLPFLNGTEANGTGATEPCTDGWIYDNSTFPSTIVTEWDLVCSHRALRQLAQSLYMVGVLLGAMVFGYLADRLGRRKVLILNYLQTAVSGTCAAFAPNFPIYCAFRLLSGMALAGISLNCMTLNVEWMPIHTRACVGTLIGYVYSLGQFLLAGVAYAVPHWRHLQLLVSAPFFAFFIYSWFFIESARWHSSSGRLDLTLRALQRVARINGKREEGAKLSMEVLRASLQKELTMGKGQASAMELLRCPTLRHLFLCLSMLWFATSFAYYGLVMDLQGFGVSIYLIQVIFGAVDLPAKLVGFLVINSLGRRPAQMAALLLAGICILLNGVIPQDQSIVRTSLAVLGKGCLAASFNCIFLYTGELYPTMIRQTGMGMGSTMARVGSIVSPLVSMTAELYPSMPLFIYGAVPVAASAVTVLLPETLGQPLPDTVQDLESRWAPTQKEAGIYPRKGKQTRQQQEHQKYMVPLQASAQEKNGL

[15] = Drug metabolism in CD1 mouse hepatocytes assessed as unmetabolized compound at 10 uM incubated for 120 mins by UPLC-QTOF-PDA analysis; type: ADME, cell-based, Hepatocyte; conditions: read-out: Drug metabolism
[16] = Apparent oral clearance in male cynomolgus monkey at 75 mg/kg, po BID measured on day 8; type: ADME, organism-based, Macaca fascicularis; conditions: in vivo
Cytochrome P450 3A4 [17] = biological target: T1, Cytochrome P450 3A4; assay: Induction of CYP3A4 in human hepatocytes; type: ADME, cell-based, Hepatocyte
[18] = Drug metabolism in cynomolgus monkey assessed as formation of M9 metabolite at 15 mg/kg, iv administered as single dose; type: ADME, organism-based, Macaca fascicularis; conditions: in vivo
[19] = Lipophilicity, logP of the compound; type: physicochemical; conditions: octanol/water
[20] = Drug metabolism in cynomolgus monkey assessed as formation of M9 metabolite at 75 to 675 mg/kg, po administered as single dose; type: ADME, organism-based, Macaca fascicularis; conditions: in vivo, dose 75-675 mg/kg
[21] = Stability in human plasma assessed as parent compound remaining measured after 6 hrs by LC-MS/MS analysis; type: ADME, cell-free; conditions: read-out: Stabilty
[22] = Toxicity in po dosed female rat administered twice a day; type: organism-based; conditions: in vivo
Cytochrome P450 2B6 = biological target: T3, Cytochrome P450 2B6 (Homo sapiens, UniProt P20813); assay: Inhibition of CYP2B6 in human hepatocytes; type: ADME, cell-based, Hepatocyte
T3 sequence (P20813 whole entry): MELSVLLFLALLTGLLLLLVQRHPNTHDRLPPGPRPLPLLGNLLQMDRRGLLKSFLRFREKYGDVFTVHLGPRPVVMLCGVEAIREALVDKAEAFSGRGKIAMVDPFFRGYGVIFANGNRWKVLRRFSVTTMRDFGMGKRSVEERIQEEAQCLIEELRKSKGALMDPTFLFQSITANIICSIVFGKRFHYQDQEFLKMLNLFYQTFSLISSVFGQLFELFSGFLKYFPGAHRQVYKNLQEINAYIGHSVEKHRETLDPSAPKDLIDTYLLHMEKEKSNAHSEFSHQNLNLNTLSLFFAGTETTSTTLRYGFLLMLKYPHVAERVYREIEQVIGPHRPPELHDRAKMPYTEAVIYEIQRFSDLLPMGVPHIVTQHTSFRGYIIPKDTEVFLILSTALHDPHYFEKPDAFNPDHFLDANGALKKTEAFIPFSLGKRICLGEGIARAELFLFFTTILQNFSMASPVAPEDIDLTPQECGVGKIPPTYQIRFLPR

[23] = Toxicity in po BID rat assessed as NOAEL; type: organism-based; conditions: in vivo
[24] = Drug metabolism in cynomolgus monkey assessed as formation of M9 metabolite at 75 to 375 mg/kg, po BID; type: ADME, organism-based, Macaca fascicularis; conditions: in vivo, dose 75-375 mg/kg
[25] = AUC (0 to 24 hrs) in male cynomolgus monkey at 75 mg/kg, po BID measured on day 8; type: ADME, organism-based, Macaca fascicularis; design: time < 24 hr, route oral, dose 75 mg/kg; conditions: in vivo
[26] = Toxicity in cynomolgus monkey assessed as NOAEL at 150 mg/kg, po BID administered for 28 days; type: organism-based, Macaca fascicularis; conditions: in vivo, time 28 day
[27] = Chemical stability of compound in simulated gastric fluid assessed as compound remaining at 5 uM measured after 24 hrs by LC-MS/MS analysis; type: ADME, physicochemical; conditions: read-out: Stabilty
[28] = Volume of distribution in male cynomolgus monkey at 15 mg/kg, iv measured on day 1; type: ADME, organism-based, Macaca fascicularis; conditions: in vivo
[29] = Oral bioavailability in male cynomolgus monkey at 825 micromol/kg; type: ADME, organism-based, Macaca fascicularis; conditions: in vivo, at 825 µmol/kg
[30] = Toxicity in rat assessed as mortality at 150 to 180 mg/kg, po; type: organism-based; conditions: in vivo, dose 150-180 mg/kg
[31] = Tmax in female cynomolgus monkey at 150 mg/kg, po BID measured on day 8; type: ADME, organism-based, Macaca fascicularis; conditions: in vivo
[32] = Solubility of the compound in FaSSIF; type: physicochemical
[33] = AUC (0 to 12 hrs) in rat po BID measured on day 28; type: ADME, organism-based; design: time < 12 hr, route oral; conditions: in vivo

What does the source list for Cn1cc(C[C@@H](N)C(=O)O)c2ccccc21 [INDOXIMOD]?
Vd [1]: 0.9 L/kg; Cmax [2]: 103 µM; half-life [3]: 2.9 h; Cmax [4]: > 16 µM; AUC at 12 h [5]: 83 µM·h; CL/F [6]: 17.6 mL/min/kg; CL/F [7]: 22.1 mL/min/kg; half-life [8]: 2.2 h; AUC at 24 h [9]: > 170 µM·h

For CCOC(=O)[C@@H](Cc1cn(C)c2ccccc12)NC(=O)[C@@H](N)CC(C)C.Cl, which Drug metabolism [10] is on record?
The Drug metabolism was “Metabolite_Detected”.

What about the IC50 (Cytochrome P450 2C19) of the same compound?
The IC50 was 47 µM.

What about the remaining at 2 h, 10 µM [11] of the same compound?
Its remaining at 2 h, 10 µM is 0.4%.

What about the IC50 shift (CYP3A4) of the same compound?
Its IC50 shift is 7.

And the IC50 (Cytochrome P450 3A4 [12])?
The IC50 was 5 µM.

What about the Activity [13] of the same compound?
The Activity was “Non-Toxic”.

And the IC50 [14]?
Its IC50 is > 50 µM.

And the remaining at 2 h, 10 µM [15]?
The remaining at 2 h, 10 µM was 0.3%.

And the CL/F [16]?
The CL/F was 25.6 mL/min/kg.

And the Activity (Cytochrome P450 3A4 [17])?
Its Activity is “Not Active”.

What about the Drug metabolism [18] of the same compound?
Its Drug metabolism is “Metabolite_Detected”.

What about the logP [19] of the same compound?
Its logP is 2.6.

What about the Drug metabolism [20] of the same compound?
Its Drug metabolism is “Metabolite_Detected”.

What about the remaining at 6 h [21] of the same compound?
The remaining at 6 h was 53%.

What about the TD10 [22] of the same compound?
The TD10 was 150 mg/kg.

What about the IC50 (Cytochrome P450 2B6) of the same compound?
Its IC50 is > 50 µM.

What about the NOAEL [23] of the same compound?
Its NOAEL is 60 mg/kg.

What about the Drug metabolism [24] of the same compound?
The Drug metabolism was “Metabolite_Detected”.

And the AUC at 24 h [25]?
Its AUC at 24 h is 177 µM·h.

And the NOAEL at 672 h [26]?
The NOAEL at 672 h was 120 mg/kg.

And the remaining at 24 h, 5 µM [27]?
The remaining at 24 h, 5 µM was 88%.

What about the Vd [28] of the same compound?
Its Vd is 309 L/kg.

And the F [29]?
Its F is 6%.

What about the Activity [30] of the same compound?
Its Activity is “Toxic”.

And the Tmax [31]?
Its Tmax is 1 h.

What about the solubility [32] of the same compound?
Its solubility is 19.1 mg/mL.

And the AUC at 12 h [33]?
Its AUC at 12 h is 953 µM·h.
